The values that follow come from patent US20040044006A1, “Methods of use of quinolone compounds against pneumococcal and haemophilus bacteria” (priority 1999, published 2004).

This assay deals with quinolone-resistant Haemophilus influenzae strains. The assay can be described thus: Microdilution MIC determination in HTM for quinolone-resistant Haemophilus influenzae strains. It counts as cell-based. On the procedure: Inocula were prepared from chocolate agar plates incubated for a full 24 hours by the direct colony suspension method as follows: In a tube of Mueller-Hinton broth (Difco), an organism suspension was made to a density of a 0.5 McFarland standard (1×10^8 CFU/ml). The latter inoculum was diluted in sterile saline such that final organisms suspensions in trays yielded colony counts of 3-8×10^5 CFU/ml. Frozen microdilution trays were obtained from MicroMedia Systems, Inc. (Cleveland, Ohio, USA). Each tray contained all antimicrobials prepared in freshly made HTM. Wells were inoculated with 100 μl suspensions and incubated in ambient air at 35° C. for 20-24 hours. The lowest drug concentration showing no growth was read as the MIC. Standard quality control strains, including H. influenzae ATCC 49766, H. influenzae ATCC 49247, Staphylococcus aureus ATCC 29213 and Escherichia coli ATCC 25922 were included with each run.

Where [1] appears, read: strain 1, GyrA S84→L, ParC S133→A N138→S, GyrB None, ParE None.
[2] abbreviates: strain 2, GyrA S84→F, ParC None, GyrB None, ParE S458→L.
Setting [3] is: strain 3, GyrA S84→L, ParC S84→I, GyrB None, ParE None.
Where [4] appears, read: strain 4, GyrA S84→F D88→N, ParC D83→N, GyrB None, ParE T459→S.
The mark [5] stands for this setting: strain 5, GyrA S84→Y, ParC E88→K, GyrB Q468→R, ParE G405→S.
Where [6] appears, read: strain 6, GyrA S84→L A117→E, ParC S84→R, GyrB None, ParE D420→N.
The mark [7] stands for this setting: strain 7, GyrA S84→L A117→E, ParC S84→R, GyrB None, ParE D420→N.
Setting [8] is: strain 8, GyrA S84→L A117→E, ParC S84→R, GyrB None, ParE D420→N.
Where [9] appears, read: strain 9, GyrA S84→F D88→Y, ParC S84→R N138→S, GyrB None, ParE S458→A S474→N.
Where [10] appears, read: strain 1, mutations S133-A N138-S, None, S84-L.
Where [11] appears, read: strain 2, mutations NONE, S458-L, S84-F, None.
[12] abbreviates: strain 3, mutations S84-I, None, S84-L.
Where [13] appears, read: strain 4, mutations D83-N, S458-S-T459, S84-F D88-N, Q468-R.
Where [14] appears, read: strain 5, mutations E88-K, G405-S, S84-Y, None.
[15] abbreviates: strain 6, mutations S84-R, D420-N, S84-L A117-E, None.
Setting [16] is: strain 7, mutations S84-R, D420-N, S84-L A117-E, None.
Where [17] appears, read: strain 8, mutations S84-R, D420-N, S84-L A117-E, None.
[18] abbreviates: strain 9, mutations S84-R N138-S, S458-A S474-N, S84-F D88-Y, None.

≈ marks a conversion by molar mass, not a printed value.

Consider `O=C(O)c1cn(C2CC2)c2cc(N3CCNCC3)c(F)cc2c1=O` [Cip], for which the MICs by setting is: under setting [1], 0.5 µg/mL; under setting [2], 0.25 µg/mL; under setting [3], 1 µg/mL; under setting [4], 1 µg/mL; under setting [5], 1 µg/mL; under setting [6], 2 µg/mL. Besides, the MICs reads like this: under setting [7], 2 µg/mL; under setting [8], 2 µg/mL; under setting [9], 8 µg/mL.
In the case of `O=C(O)c1cn(C2CC2)c2cc(N3CCNCC3)c(F)cc2c1=O` [Cipro], the MIC was found to be 0.5 µg/mL (≈ 1.51 µM) (Haemophilus influenzae, strain 1, mutations S133-A N138-S, None, S84-L); 0.25 µg/mL (≈ 0.754 µM) (Haemophilus influenzae, strain 2, mutations NONE, S458-L, S84-F, None); 1 µg/mL (≈ 3.02 µM) (Haemophilus influenzae, strain 3, mutations S84-I, None, S84-L); 1 µg/mL (≈ 3.02 µM) (Haemophilus influenzae, strain 4, mutations D83-N, S458-S-T459, S84-F D88-N, Q468-R); 1 µg/mL (≈ 3.02 µM) (Haemophilus influenzae, strain 5, mutations E88-K, G405-S, S84-Y, None); 2 µg/mL (≈ 6.04 µM) (Haemophilus influenzae, strain 6, mutations S84-R, D420-N, S84-L A117-E, None). Moreover, the MIC was found to be 2 µg/mL (≈ 6.04 µM) (Haemophilus influenzae, strain 7, mutations S84-R, D420-N, S84-L A117-E, None); 2 µg/mL (≈ 6.04 µM) (Haemophilus influenzae, strain 8, mutations S84-R, D420-N, S84-L A117-E, None); 8 µg/mL (≈ 24.1 µM) (Haemophilus influenzae, strain 9, mutations S84-R N138-S, S458-A S474-N, S84-F D88-Y, None).
On to `CO/N=C1\CN(c2nc3c(cc2F)c(=O)c(C(=O)O)cn3C2CC2)CC1CN` (stereo not drawn) [Gemi], for which the MIC runs as follows: under setting [10], 0.03 µg/mL (≈ 0.077 µM); under setting [11], 0.125 µg/mL (≈ 0.321 µM); under setting [12], 0.125 µg/mL (≈ 0.321 µM); under setting [13], 0.25 µg/mL (≈ 0.642 µM); under setting [14], 0.25 µg/mL (≈ 0.642 µM); under setting [15], 0.5 µg/mL (≈ 1.28 µM). Further, the MIC was 0.5 µg/mL (≈ 1.28 µM) under setting [16], 0.5 µg/mL (≈ 1.28 µM) under setting [17] and 1 µg/mL (≈ 2.57 µM) under setting [18].
`Cc1c(F)c(N2CCNC(C)C2)cc2c1c(=O)c(C(=O)O)cn2C1CC1` (stereo not drawn) [Gre] registered an MICs under setting [1] of 0.25 µg/mL; an MICs under setting [2] of 0.5 µg/mL; an MICs under setting [3] of 0.5 µg/mL; an MICs under setting [4] of 2 µg/mL; an MICs under setting [5] of 1 µg/mL; an MICs under setting [6] of 1 µg/mL. For the same compound, the MICs runs as follows: under setting [7], 1 µg/mL; under setting [8], 1 µg/mL; under setting [9], 4 µg/mL.
As for `Cc1c(F)c(N2CCNC(C)C2)cc2c1c(=O)c(C(=O)O)cn2C1CC1` (stereo not drawn) [Grepa], the MIC reads like this: under setting [10], 0.25 µg/mL (≈ 0.696 µM); under setting [11], 0.5 µg/mL (≈ 1.39 µM); under setting [12], 0.5 µg/mL (≈ 1.39 µM); under setting [13], 2 µg/mL (≈ 5.56 µM); under setting [14], 1 µg/mL (≈ 2.78 µM); under setting [15], 1 µg/mL (≈ 2.78 µM). Further, the MIC amounted to 1 µg/mL (≈ 2.78 µM) under setting [16], 1 µg/mL (≈ 2.78 µM) under setting [17] and 4 µg/mL (≈ 11.1 µM) under setting [18].
With `C[C@H]1COc2c(N3CCN(C)CC3)c(F)cc3c(=O)c(C(=O)O)cn1c23` [Lev], the MICs was found to be 0.5 µg/mL under setting [1]; 0.25 µg/mL under setting [2]; 1 µg/mL under setting [3]; 0.5 µg/mL under setting [4]; 1 µg/mL under setting [5]; 2 µg/mL under setting [6]. Further, the MICs reads like this: under setting [7], 2 µg/mL; under setting [8], 2 µg/mL; under setting [9], 4 µg/mL.
Consider `C[C@H]1COc2c(N3CCN(C)CC3)c(F)cc3c(=O)c(C(=O)O)cn1c23` [Levo], for which the MIC runs as follows: under setting [10], 0.5 µg/mL (≈ 1.38 µM); under setting [11], 0.25 µg/mL (≈ 0.692 µM); under setting [12], 1 µg/mL (≈ 2.77 µM); under setting [13], 0.5 µg/mL (≈ 1.38 µM); under setting [14], 1 µg/mL (≈ 2.77 µM); under setting [15], 2 µg/mL (≈ 5.53 µM). The MIC is, setting by setting: under setting [16], 2 µg/mL (≈ 5.53 µM); under setting [17], 2 µg/mL (≈ 5.53 µM); under setting [18], 4 µg/mL (≈ 11.1 µM).
Consider `C[C@@H]1CN(c2c(F)c(N)c3c(=O)c(C(=O)O)cn(C4CC4)c3c2F)C[C@H](C)N1` [Spa], for which the MICs reads like this: under setting [1], 0.25 µg/mL; under setting [2], 0.25 µg/mL; under setting [3], 0.5 µg/mL; under setting [4], 0.25 µg/mL; under setting [5], 1 µg/mL; under setting [6], 1 µg/mL. The MICs is, setting by setting: under setting [7], 1 µg/mL; under setting [8], 1 µg/mL; under setting [9], 8 µg/mL.
Take `C[C@@H]1CN(c2c(F)c(N)c3c(=O)c(C(=O)O)cn(C4CC4)c3c2F)C[C@H](C)N1` [Spar]: the MIC runs as follows: under setting [10], 0.25 µg/mL (≈ 0.637 µM); under setting [11], 0.25 µg/mL (≈ 0.637 µM); under setting [12], 0.5 µg/mL (≈ 1.27 µM); under setting [13], 0.25 µg/mL (≈ 0.637 µM); under setting [14], 1 µg/mL (≈ 2.55 µM); under setting [15], 1 µg/mL (≈ 2.55 µM). The MIC by setting is: under setting [16], 1 µg/mL (≈ 2.55 µM); under setting [17], 1 µg/mL (≈ 2.55 µM); under setting [18], 8 µg/mL (≈ 20.4 µM).
Turning to `N[C@@H]1[C@H]2CN(c3nc4c(cc3F)c(=O)c(C(=O)O)cn4-c3ccc(F)cc3F)C[C@@H]12` [Tro], the MICs reads like this: under setting [1], 1 µg/mL; under setting [2], 0.25 µg/mL; under setting [3], 1 µg/mL; under setting [4], 0.5 µg/mL; under setting [5], 1 µg/mL; under setting [6], 4 µg/mL. Moreover, the MICs came out at 4 µg/mL under setting [7], 4 µg/mL under setting [8] and 8 µg/mL under setting [9].
Consider `N[C@@H]1[C@H]2CN(c3nc4c(cc3F)c(=O)c(C(=O)O)cn4-c3ccc(F)cc3F)C[C@@H]12` [Trova], for which the MIC by setting is: under setting [10], 1 µg/mL (≈ 2.4 µM); under setting [11], 0.25 µg/mL (≈ 0.6 µM); under setting [12], 1 µg/mL (≈ 2.4 µM); under setting [13], 0.5 µg/mL (≈ 1.2 µM); under setting [14], 1 µg/mL (≈ 2.4 µM); under setting [15], 4 µg/mL (≈ 9.61 µM). The MIC under setting [16] worked out at 4 µg/mL (≈ 9.61 µM), the MIC under setting [17] was found to be 4 µg/mL (≈ 9.61 µM) and the MIC under setting [18] was 8 µg/mL (≈ 19.2 µM).
